Assay results from US20070269384A1, “Use of perfluoroalkyl-containing metal complexes as contrast media for diagnosis of Alzheimer's disease” (priority 2006, published 2007).

Tests used:
[1] = tested on: amyloid plaques; assay: MRT visualization of Alzheimer lesions after intravenous administration in APP-23 mice; format: in vivo; conditions: 0.5 mmol of Gd/kg i.v., up to 60 minutes after administration, 7T, localization confirmed by Puchtler's Congo red stain
Protocol: MRT Visualization of Alzheimer Lesions After Intravenous Administration of Contrast Medium in APP-23 Mice
The images of FIG. 1 show MR images of the brain before as well as up to 60 minutes after intravenous administration of 0.5 mmol of Gd/kg of body weight of metal complex 13 (MK13) in APP-23 mice (mice with genetically-induced Alzheimer's disease). […] The localization of the amyloid-containing structures was confirmed by means of Puchtler's Congo red stain. With this test, the suitability of the compounds according to the invention as in-vivo markers for amyloid plaques in the brains of mice with Alzheimer's disease could be shown.

[2] = Critical micelle formation concentration (CMC) by tensiometry; format: physicochemical
Protocol: In aqueous systems, these amphiphilic molecules show the properties that are characteristic of standard surfactants (such as, e.g., sodium dodecyl sulfate, SDS). Thus, they reduce the surface tension of the water. By tensiometry, the so-called CMC (critical micelle formation concentration in mol/l) can be determined. To this end, the surface tension is determined based on the concentration of the substance to be measured. The CMC can be calculated from the course of the surface tension (c) function that is obtained. The critical micelle formation concentration of the compounds according to the invention should be <10^−3 mol/l, preferably <10^−4 mol/l.
(§1) Both the determination of CMC and the photon correlation spectroscopy are described in H.-D. Dorfler, “Grenzflächen- and Kolloidchemie [Interface and Colloid Chemistry],” Weinheim, New York, Basel, Cambridge, Tokyo, VSH 1994.

[3] = Proton relaxivity R1 in bovine plasma (Minispec P 20); format: physicochemical; conditions: in plasma at 40° C., magnetic field strength 0.47 Tesla
Protocol: As a third criterion for especially suitable MR contrast media, the proton relaxivity (relaxivity) in plasma (R1) at 40° C. and a field strength of 0.47 Tesla is used. The relaxivity, which is indicated in [l/mmol*s], is the quantitative measurement for the shortening of the relaxation time T1 of the protons. For the purpose according to the invention, the relaxivity must be as high as possible and must be >10 l/mmol*s, preferably >13 l/mmol*s, especially preferably >15 l/mmol*s.
The relaxivity R1 [l/mmol*s] of the MR contrast media according to the invention was determined with the Minispec P 20 device of the Bruker Company. The measurements were made at 40° C. and a field strength of 0.47 Tesla. 8 measuring points were recorded in each T1 sequence (180°-T1-90°, inversion recovery). As a medium, bovine plasma of the Kraeber Company was used. The contrast medium concentrations [mmol/l] in the preparations were between 0.30 and 1.16.

[4] = Hydrodynamic micelle diameter 2 Rh by photon-correlation spectroscopy; format: physicochemical
Source text: The amphiphilic compounds according to the invention are combined in solution and are present as aggregates. The size (2 Rh) of such aggregates (e.g., micelles, rods, oblates, etc.) can be determined with the aid of photon-correlation spectroscopy (PCS).
As a second criterion for preferably usable metal complexes, therefore, the hydrodynamic micelle diameter 2 Rh, which must be >1 nm, is used. Those perfluoroalkyl-containing metal complexes, whose 2 Rh≧3 nm, quite especially preferably >4 nm, are especially suitable according to the invention.
as §1

In the case of `CC(C(=O)NCC(=O)NCCCC[C@H](NC(=O)CO[C@H]1O[C@H](CO)[C@@H](O)[C@H](O)[C@@H]1O)C(=O)N1CCN(S(=O)(=O)C(F)(F)C(F)(F)C(F)(F)C(F)(F)C(F)(F)C(F)(F)C(F)(F)C(F)(F)F)CC1)N1CCN(CC(=O)[O-])CCN(CC(=O)[O-])CCN(CC(=O)[O-])CC1.[Gd+3]` (stereo partly drawn) [MK 13, gadolinium complex of 6-N-[1,4,7-tris(carboxylatomethyl)-1,4,7,10-tetraazacyclododecane-10-N-(pentanoyl-3-aza-4-oxo-5-methyl-5-yl)]-2-N-[1-O-α-D-carbonylmethyl-manno-pyranose]-L-lysine-[1-(4-perfluorooctylsulfonyl)-piperazine]-amide], the “MR signal in the amyloid plaques of the diseased brains (T1-weighted spin echo images)” value [1] is reported as “strong signal increase”, the “CMC (Critical Micelle Formation Concentration)” value [2] is reported as 2.5e-06 mol/L and the “R1 (Relaxivity)” value [3] is reported as 15.9 L/mmol/s. For the same compound, the “2 Rh (Hydrodynamic Micelle Diameter)” value [4] was 4.4 nm.
With “gadolinium complex of 1,4,7-tris{1,4,7-tris(N-(carboxylatomethyl)-10-[N-1-methyl-3,6-diaza-2,5,8-trioxooctane-1,8-diyl)]-1,4,7,10-tetraazacyclododecane, Gd complex}-10-[N-2H, 2H, 4H, 4H, 5H, 5H-3-oxa-perfluoro-tridecanoyl]-1,4,7,10-tetraazacyclododecane [MK 12]” the “CMC (Critical Micelle Formation Concentration)” value [2] was 0.00089 mol/L, the “R1 (Relaxivity)” value [3] was 19.5 L/mmol/s and the “2 Rh (Hydrodynamic Micelle Diameter)” value [4] was 2.2 nm.
